From ChEMBL document CHEMBL2375330, “Synthesis of pyrazole encompassing 2-pyridone derivatives as antibacterial agents” (Bioorg Med Chem Lett, 2013)
Values after ≈ are worked out from the molar mass of the structure shown.

Experiments:
HeLa = assay: Cytotoxicity against human HeLa cells by MTT assay; format: cell-based
Staphylococcus aureus = assay: Antibacterial activity against Staphylococcus aureus MTCC 96 by broth dilution method; format: functional
Pseudomonas aeruginosa = assay: microbe, parasite or virus in culture; format: functional; details: MTCC 1688
Description: Antibacterial activity against Pseudomonas aeruginosa MTCC 1688 by broth dilution method

Escherichia coli = assay: microbe, parasite or virus in culture; format: functional; details: MTCC 443
Description: Antibacterial activity against Escherichia coli MTCC 443 by broth dilution method

Streptococcus pyogenes = assay: microbe, parasite or virus in culture; format: functional; details: MTCC 442
Description: Antibacterial activity against Streptococcus pyogenes MTCC 442 by broth dilution method

NIH3T3 = assay: Cytotoxicity against mouse NIH/3T3 cells by MTT assay; format: cell-based

Compound	MIC (Staphylococcus aureus) [mg/L]	MIC (Pseudomonas aeruginosa) [mg/L]	MIC (Escherichia coli) [mg/L]	MIC (Streptococcus pyogenes) [mg/L]	IC50 (HeLa) [mg/L]	IC50 (NIH3T3) [mg/L]
N#Cc1c(-c2ccccc2)c(C#N)c(=O)n(/N=C/c2cn(-c3ccccc3)nc2-c2ccccc2)c1N	500 (≈ 1040 µM)	500 (≈ 1040 µM)	250 (≈ 519 µM)	500 (≈ 1040 µM)	> 200	180 (≈ 374 µM)
COc1ccc(-c2c(C#N)c(N)n(/N=C/c3cn(-c4ccccc4)nc3-c3ccccc3)c(=O)c2C#N)cc1	500 (≈ 977 µM)	500 (≈ 977 µM)	500 (≈ 977 µM)	250 (≈ 489 µM)	> 200	50 (≈ 97.7 µM)
N#Cc1c(-c2cccc(Cl)c2)c(C#N)c(=O)n(/N=C/c2cn(-c3ccccc3)nc2-c2ccccc2)c1N	500 (≈ 969 µM)	250 (≈ 485 µM)	50 (≈ 96.9 µM)	100 (≈ 194 µM)	> 200	52 (≈ 101 µM)
N#Cc1c(-c2ccc(O)cc2)c(C#N)c(=O)n(/N=C/c2cn(-c3ccccc3)nc2-c2ccccc2)c1N	500 (≈ 1000 µM)	500 (≈ 1000 µM)	500 (≈ 1000 µM)	500 (≈ 1000 µM)	> 200	110 (≈ 221 µM)
COc1cc(-c2c(C#N)c(N)n(/N=C/c3cn(-c4ccccc4)nc3-c3ccccc3)c(=O)c2C#N)cc(OC)c1OC	500 (≈ 875 µM)	250 (≈ 437 µM)	500 (≈ 875 µM)	250 (≈ 437 µM)	> 200	64 (≈ 112 µM)
Cc1ccc(-c2c(C#N)c(N)n(/N=C/c3cn(-c4ccccc4)nc3-c3ccccc3)c(=O)c2C#N)cc1	500 (≈ 1010 µM)	250 (≈ 504 µM)	500 (≈ 1010 µM)	250 (≈ 504 µM)	> 200	98 (≈ 198 µM)
N#Cc1c(-c2cccc([N+](=O)[O-])c2)c(C#N)c(=O)n(/N=C/c2cn(-c3ccccc3)nc2-c2ccccc2)c1N	250 (≈ 475 µM)	100 (≈ 190 µM)	100 (≈ 190 µM)	50 (≈ 95 µM)	> 200	124 (≈ 236 µM)
O=C(O)c1cn(C2CC2)c2cc(N3CCNCC3)c(F)cc2c1=O [CIPROFLOXACIN]	50 (≈ 151 µM)		25 (≈ 75.4 µM)	50 (≈ 151 µM)		
N#Cc1c(-c2ccc(Cl)cc2)c(C#N)c(=O)n(/N=C/c2cn(-c3ccccc3)nc2-c2ccccc2)c1N	100 (≈ 194 µM)	500 (≈ 969 µM)	500 (≈ 969 µM)	12.5 (≈ 24.2 µM)	> 200	64 (≈ 124 µM)
N#Cc1c(-c2ccccc2O)c(C#N)c(=O)n(/N=C/c2cn(-c3ccccc3)nc2-c2ccccc2)c1N	500 (≈ 1000 µM)	500 (≈ 1000 µM)	500 (≈ 1000 µM)	250 (≈ 502 µM)	> 200	162 (≈ 326 µM)
N#Cc1c(-c2cccc(Br)c2)c(C#N)c(=O)n(/N=C/c2cn(-c3ccccc3)nc2-c2ccccc2)c1N	250 (≈ 446 µM)	250 (≈ 446 µM)	100 (≈ 178 µM)	500 (≈ 892 µM)	> 200	42 (≈ 74.9 µM)

The next lines start with results.

MIC (Staphylococcus aureus) [mg/L]	MIC (Pseudomonas aeruginosa) [mg/L]	MIC (Escherichia coli) [mg/L]	MIC (Streptococcus pyogenes) [mg/L]	Compound	IC50 (HeLa) [mg/L]	IC50 (NIH3T3) [mg/L]
25 (≈ 50 µM)	50 (≈ 100 µM)	250 (≈ 500 µM)	25 (≈ 50 µM)	N#Cc1c(-c2ccccc2F)c(C#N)c(=O)n(/N=C/c2cn(-c3ccccc3)nc2-c2ccccc2)c1N	> 200	> 200
12.5 (≈ 22.3 µM)	250 (≈ 446 µM)	100 (≈ 178 µM)	250 (≈ 446 µM)	N#Cc1c(-c2ccccc2Br)c(C#N)c(=O)n(/N=C/c2cn(-c3ccccc3)nc2-c2ccccc2)c1N	> 200	174 (≈ 310 µM)
50 (≈ 95 µM)	25 (≈ 47.5 µM)	12.5 (≈ 23.7 µM)	12.5 (≈ 23.7 µM)	N#Cc1c(-c2ccc([N+](=O)[O-])cc2)c(C#N)c(=O)n(/N=C/c2cn(-c3ccccc3)nc2-c2ccccc2)c1N	> 200	84 (≈ 160 µM)
25 (≈ 47.5 µM)	100 (≈ 190 µM)	25 (≈ 47.5 µM)	250 (≈ 475 µM)	N#Cc1c(-c2ccccc2[N+](=O)[O-])c(C#N)c(=O)n(/N=C/c2cn(-c3ccccc3)nc2-c2ccccc2)c1N	> 200	> 200
100 (≈ 194 µM)	100 (≈ 194 µM)	100 (≈ 194 µM)	100 (≈ 194 µM)	N#Cc1c(-c2ccccc2Cl)c(C#N)c(=O)n(/N=C/c2cn(-c3ccccc3)nc2-c2ccccc2)c1N	> 200	84 (≈ 163 µM)
50 (≈ 100 µM)	50 (≈ 100 µM)	100 (≈ 200 µM)	50 (≈ 100 µM)	N#Cc1c(-c2cccc(F)c2)c(C#N)c(=O)n(/N=C/c2cn(-c3ccccc3)nc2-c2ccccc2)c1N	> 200	154 (≈ 308 µM)
25 (≈ 45.5 µM)	25 (≈ 45.5 µM)	250 (≈ 455 µM)	250 (≈ 455 µM)	N#Cc1c(-c2ccc(C(F)(F)F)cc2)c(C#N)c(=O)n(/N=C/c2cn(-c3ccccc3)nc2-c2ccccc2)c1N	> 200	> 200
12.5 (≈ 25 µM)	25 (≈ 50 µM)	12.5 (≈ 25 µM)	100 (≈ 200 µM)	N#Cc1c(-c2ccc(F)cc2)c(C#N)c(=O)n(/N=C/c2cn(-c3ccccc3)nc2-c2ccccc2)c1N	> 200	> 200
100 (≈ 182 µM)	250 (≈ 455 µM)	100 (≈ 182 µM)	250 (≈ 455 µM)	N#Cc1c(-c2ccccc2C(F)(F)F)c(C#N)c(=O)n(/N=C/c2cn(-c3ccccc3)nc2-c2ccccc2)c1N	> 200	56 (≈ 102 µM)
12.5 (≈ 22.3 µM)	100 (≈ 178 µM)	500 (≈ 892 µM)	100 (≈ 178 µM)	N#Cc1c(-c2ccc(Br)cc2)c(C#N)c(=O)n(/N=C/c2cn(-c3ccccc3)nc2-c2ccccc2)c1N	> 200	> 200
